ChEMBL document CHEMBL5365526 (J Med Chem, 2023)
Calls of active or inactive are those of the source. The calls are words filed in the database; no cut-off is given here.

How the values were obtained:
HCT-116 [1] = test: Inhibition of cell colony formation in human HCT-116 cells at 0.5 uM cultured in 8% FBS and measured after 7 days in presence of LPS by crystal violet staining based analysis; format: functional; conditions: time 7.0 day
A-375 [2] = test: Effect on GDC0994-induced antitumor activity against human A-375 cells assessed as reduction in cell viability at 200 nM incubated for 72 hrs by CCK8 assay; format: functional, cell-based
[3] = target: T1, von Hippel-Lindau disease tumor suppressor/Mitogen-activated protein kinase 7 (Homo sapiens, UniProt Q13164+P40337); test: PROTAC activity at VHL/ERK5 in human A-375 cells assessed as maximal induction of ERK5 degradation incubated for 12 hrs by western blot analysis relative to control; format: cell-based
Target sequence in this assay (P40337 whole entry partner): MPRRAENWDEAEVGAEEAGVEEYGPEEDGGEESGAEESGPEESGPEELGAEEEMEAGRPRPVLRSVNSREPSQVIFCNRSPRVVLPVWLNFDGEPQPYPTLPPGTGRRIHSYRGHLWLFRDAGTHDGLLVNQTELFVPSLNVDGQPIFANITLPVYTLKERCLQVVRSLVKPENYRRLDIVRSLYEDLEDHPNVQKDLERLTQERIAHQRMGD
Target sequence in this assay (Q13164 2-816 limits assumed): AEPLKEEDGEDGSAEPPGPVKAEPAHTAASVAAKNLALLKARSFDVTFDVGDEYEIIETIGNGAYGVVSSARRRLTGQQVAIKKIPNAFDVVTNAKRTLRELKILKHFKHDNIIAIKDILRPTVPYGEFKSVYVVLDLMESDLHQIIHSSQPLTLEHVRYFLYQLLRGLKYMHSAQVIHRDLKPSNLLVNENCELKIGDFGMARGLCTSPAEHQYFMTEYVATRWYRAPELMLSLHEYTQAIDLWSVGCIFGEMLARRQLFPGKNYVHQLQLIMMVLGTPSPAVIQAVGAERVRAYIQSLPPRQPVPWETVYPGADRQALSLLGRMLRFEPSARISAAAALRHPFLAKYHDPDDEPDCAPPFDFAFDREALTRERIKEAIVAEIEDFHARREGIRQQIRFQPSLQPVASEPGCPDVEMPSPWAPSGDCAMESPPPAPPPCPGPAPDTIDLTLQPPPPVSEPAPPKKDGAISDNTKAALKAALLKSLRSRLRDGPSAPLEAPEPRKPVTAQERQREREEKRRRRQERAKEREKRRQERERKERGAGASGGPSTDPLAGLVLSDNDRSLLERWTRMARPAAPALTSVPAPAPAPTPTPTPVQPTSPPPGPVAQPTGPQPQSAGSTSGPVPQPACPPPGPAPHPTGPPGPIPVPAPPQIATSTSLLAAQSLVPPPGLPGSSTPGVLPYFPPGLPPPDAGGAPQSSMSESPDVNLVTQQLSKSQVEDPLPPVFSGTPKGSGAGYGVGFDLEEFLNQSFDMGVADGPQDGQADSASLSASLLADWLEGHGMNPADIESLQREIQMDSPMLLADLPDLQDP

[4] = target: von Hippel-Lindau disease tumor suppressor/Leucine-rich repeat serine/threonine-protein kinase 2 (Homo sapiens) (UniProt Q5S007+P40337); test: PROTAC activity at VHL/LRRK2 in human A-375 cells assessed as induction of LRRK2 degradation at 6 to 500 nM incubated for 12 hrs by western bot analysis; format: cell-based; conditions: dose 6-500 nM
[5] = target: T1, von Hippel-Lindau disease tumor suppressor/Mitogen-activated protein kinase 7; test: PROTAC activity at VHL/ERK5 in human NCI-H1975 cells assessed as induction of ERK5 degradation incubated for 12 hrs by western blot analysis; format: cell-based
Target sequence in this assay (Q13164 whole entry): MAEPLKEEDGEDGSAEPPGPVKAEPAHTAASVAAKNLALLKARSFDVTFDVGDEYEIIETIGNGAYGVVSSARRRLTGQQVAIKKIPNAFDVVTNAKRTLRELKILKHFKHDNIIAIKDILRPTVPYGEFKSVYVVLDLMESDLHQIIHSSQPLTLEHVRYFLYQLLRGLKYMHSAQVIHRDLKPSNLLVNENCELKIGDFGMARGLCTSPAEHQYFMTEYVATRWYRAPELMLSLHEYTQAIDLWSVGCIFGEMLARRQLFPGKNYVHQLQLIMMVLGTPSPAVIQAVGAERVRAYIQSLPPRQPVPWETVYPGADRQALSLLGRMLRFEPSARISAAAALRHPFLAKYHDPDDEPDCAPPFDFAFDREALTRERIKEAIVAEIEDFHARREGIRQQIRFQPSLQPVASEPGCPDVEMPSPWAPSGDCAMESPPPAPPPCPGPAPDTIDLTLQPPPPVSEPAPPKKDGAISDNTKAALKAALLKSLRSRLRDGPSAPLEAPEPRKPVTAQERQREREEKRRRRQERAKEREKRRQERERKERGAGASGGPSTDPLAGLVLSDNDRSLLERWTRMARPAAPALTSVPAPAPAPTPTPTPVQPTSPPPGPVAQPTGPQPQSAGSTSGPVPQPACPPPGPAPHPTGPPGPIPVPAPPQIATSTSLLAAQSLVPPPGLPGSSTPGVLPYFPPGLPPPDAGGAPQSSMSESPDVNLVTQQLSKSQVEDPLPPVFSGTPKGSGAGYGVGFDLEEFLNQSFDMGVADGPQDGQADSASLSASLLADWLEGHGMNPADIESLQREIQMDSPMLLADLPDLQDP
Target sequence in this assay (P40337 whole entry): as the sequence (P40337 whole entry partner) above

[6] = target: Mitogen-activated protein kinase 7 (Homo sapiens, UniProt Q13164); test: Inhibition of ERK5 (unknown origin) by ADP-Glo kinase assay
Mitogen-activated protein kinase 7, sequence (Q13164 whole entry): as the sequence (Q13164 whole entry) above

[7] = target: T1, von Hippel-Lindau disease tumor suppressor/Mitogen-activated protein kinase 7; test: PROTAC activity at VHL/ERK5 in human MDA-MB-231 cells assessed as induction of ERK5 degradation incubated for 12 hrs by western blot analysis; format: cell-based
Target sequence in this assay (Q13164 whole entry): as above
Target sequence in this assay (P40337 whole entry): as the sequence (P40337 whole entry partner) above

[8] = target: T1, von Hippel-Lindau disease tumor suppressor/Mitogen-activated protein kinase 7; test: PROTAC activity at VHL/ERK5 in human A-375 cells assessed as induction of ERK5 degradation at 1.1 microM incubated for 12 hrs by western blot analysis; format: cell-based
Target sequence in this assay (P40337 whole entry partner): as above
Target sequence in this assay (Q13164 2-816 limits assumed): as the sequence (Q13164 2-816 limits assumed) above

[9] = target: T1, von Hippel-Lindau disease tumor suppressor/Mitogen-activated protein kinase 7; test: PROTAC activity at VHL/ERK5 in human PC-3 cells assessed as maximal induction of ERK5 degradation incubated for 12 hrs by western blot analysis relative to control; format: cell-based
Target sequence in this assay (P40337 whole entry partner): as the sequence (P40337 whole entry partner) above
Target sequence in this assay (Q13164 2-816 limits assumed): as the sequence (Q13164 2-816 limits assumed) above

[10] = target: T1, von Hippel-Lindau disease tumor suppressor/Mitogen-activated protein kinase 7; test: PROTAC activity at VHL/ERK5 in human THP-1 cells assessed as decrease in IL-10 level at 0.5 uM incubated for 0.5 hrs followed by incubation with LPS for 24 hrs; format: cell-based; conditions: time 24.5 hrs
Target sequence in this assay (P40337 whole entry partner): as the sequence (P40337 whole entry partner) above
Target sequence in this assay (Q13164 2-816 limits assumed): as the sequence (Q13164 2-816 limits assumed) above

[11] = target: T1, von Hippel-Lindau disease tumor suppressor/Mitogen-activated protein kinase 7; test: PROTAC activity at VHL/ERK5 in human A-375 cells assessed as induction of ERK5 degradation at 200 nM incubated for 2 to 4 hrs by western blot analysis; format: cell-based; conditions: time 2-4 hrs
Target sequence in this assay (P40337 whole entry partner): as the sequence (P40337 whole entry partner) above
Target sequence in this assay (Q13164 2-816 limits assumed): as the sequence (Q13164 2-816 limits assumed) above

[12] = target: T1, von Hippel-Lindau disease tumor suppressor/Mitogen-activated protein kinase 7; test: PROTAC activity at VHL/ERK5 in human A-375 cells assessed as induction of ERK5 degradation at 200 nM pretreated for 1 hr with proteasome inhibitor, MG132 followed by incubation with compound for 12 hrs by western blot analysis; format: cell-based
Target sequence in this assay (P40337 whole entry partner): as the sequence (P40337 whole entry partner) above
Target sequence in this assay (Q13164 2-816 limits assumed): as the sequence (Q13164 2-816 limits assumed) above

HCT-116 [13] = test: Effect on dabrafenib-induced antitumor activity against human HCT-116 cells assessed as reduction in cell viability at 200 nM incubated for 72 hrs by CCK8 assay; format: functional, cell-based
[14] = target: T1, von Hippel-Lindau disease tumor suppressor/Mitogen-activated protein kinase 7; test: PROTAC activity at VHL/ERK5 in human HepG2 cells assessed as maximal induction of ERK5 degradation incubated for 12 hrs by western blot analysis relative to control; format: cell-based
[15] = target: T1, von Hippel-Lindau disease tumor suppressor/Mitogen-activated protein kinase 7; test: PROTAC activity at VHL/ERK5 in human HCT-116 cells assessed as induction of ERK5 degradation incubated for 12 hrs by western blot analysis; format: cell-based
Target sequence in this assay (Q13164 whole entry): as the sequence (Q13164 whole entry) above
Target sequence in this assay (P40337 whole entry): as the sequence (P40337 whole entry partner) above

[16] = target: von Hippel-Lindau disease tumor suppressor/Serine/threonine-protein kinase DCLK1 (Homo sapiens) (UniProt O15075+P40337); test: PROTAC activity at VHL/DCLK1 in human A-375 cells assessed as induction of DCLK1 degradation at 6 to 500 nM incubated for 12 hrs by western bot analysis; format: cell-based; conditions: dose 6-500 nM
von Hippel-Lindau disease tumor suppressor/Serine/threonine-protein kinase DCLK1 (Homo sapiens), sequence (O15075 whole entry, looked up): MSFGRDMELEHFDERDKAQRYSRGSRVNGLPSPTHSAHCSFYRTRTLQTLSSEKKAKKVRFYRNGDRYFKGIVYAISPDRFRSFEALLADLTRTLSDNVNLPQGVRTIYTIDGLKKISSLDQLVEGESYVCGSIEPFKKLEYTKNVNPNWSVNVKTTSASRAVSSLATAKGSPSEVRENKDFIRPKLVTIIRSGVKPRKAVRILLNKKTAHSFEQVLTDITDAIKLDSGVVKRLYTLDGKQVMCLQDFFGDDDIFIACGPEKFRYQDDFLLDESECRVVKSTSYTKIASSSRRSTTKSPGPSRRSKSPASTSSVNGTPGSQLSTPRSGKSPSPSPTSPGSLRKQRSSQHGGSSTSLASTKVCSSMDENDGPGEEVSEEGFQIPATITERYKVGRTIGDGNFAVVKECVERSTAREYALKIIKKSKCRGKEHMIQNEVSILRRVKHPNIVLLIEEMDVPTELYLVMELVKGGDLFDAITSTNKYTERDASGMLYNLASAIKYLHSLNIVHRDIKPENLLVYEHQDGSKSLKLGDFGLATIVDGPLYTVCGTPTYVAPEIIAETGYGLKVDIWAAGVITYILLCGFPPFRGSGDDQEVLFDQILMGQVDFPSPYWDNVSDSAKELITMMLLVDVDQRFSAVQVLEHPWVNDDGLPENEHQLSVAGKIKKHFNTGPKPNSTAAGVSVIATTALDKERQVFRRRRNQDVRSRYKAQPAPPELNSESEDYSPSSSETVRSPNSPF
von Hippel-Lindau disease tumor suppressor/Serine/threonine-protein kinase DCLK1 (Homo sapiens), sequence (P40337 whole entry, looked up): as the sequence (P40337 whole entry partner) above

[17] = target: T1, von Hippel-Lindau disease tumor suppressor/Mitogen-activated protein kinase 7; test: PROTAC activity at VHL/ERK5 in human A-375 cells assessed as induction of ERK5 degradation incubated for 24 hrs by western blot analysis; format: cell-based
Target sequence in this assay (Q13164 whole entry): as the sequence (Q13164 whole entry) above
Target sequence in this assay (P40337 whole entry): as the sequence (P40337 whole entry partner) above

A-375 [18] = test: Effect on mirdametinib-induced antitumor activity against human A-375 cells assessed as reduction in cell viability at 200 nM incubated for 72 hrs by CCK8 assay; format: functional, cell-based
[19] = target: T1, von Hippel-Lindau disease tumor suppressor/Mitogen-activated protein kinase 7; test: PROTAC activity at VHL/ERK5 in human MDA-MB-231 cells assessed as maximal induction of ERK5 degradation incubated for 12 hrs by western blot analysis relative to control; format: cell-based
[20] = target: T1, von Hippel-Lindau disease tumor suppressor/Mitogen-activated protein kinase 7; test: PROTAC activity at VHL/ERK5 in human THP-1 cells assessed as induction of ERK5 degradation at 0.5 uM incubated for 0.5 hrs followed by incubation with LPS for 24 hrs by western blot analysis; format: cell-based; conditions: time 24.5 hrs
[21] = target: T1, von Hippel-Lindau disease tumor suppressor/Mitogen-activated protein kinase 7; test: PROTAC activity at VHL/ERK5 in human PC-3 cells assessed as induction of ERK5 degradation incubated for 12 hrs by western blot analysis; format: cell-based
Target sequence in this assay (Q13164 whole entry): as the sequence (Q13164 whole entry) above
Target sequence in this assay (P40337 whole entry): as the sequence (P40337 whole entry partner) above

`COc1cc(N2CCN(CCCCCCC(=O)N[C@H](C(=O)N3C[C@H](O)C[C@H]3C(=O)N[C@@H](C)c3ccc(-c4scnc4C)cc3)C(C)(C)C)CC2)ccc1Nc1ncc2c(n1)N(C)c1ccccc1C(=O)N2C` was tested, and the inhibition (HCT-116 [1]) was “inactive”, the Activity (A-375 [2]) was “inactive” and the Activity [3] was 91.4%. The Activity [4] was “inactive”, the DC50 [5] was 11.5 nM and the IC50 [6] was 62.4 nM. The DC50 [7] was 22.7 nM, the Activity [8] was “inactive” and the Activity [9] was 89.4%. For the same compound, the Activity [10] was “Active”, the Activity [11] was “Active” and the Activity [12] was “inactive”. The Activity (HCT-116 [13]) was “inactive”, the Activity [14] was 92.7% and the DC50 [15] was 5.6 nM. For the same compound, the Activity [16] was “inactive”, the DC50 [17] was roughly 17 nM and the Activity (A-375 [18]) was “inactive”. For the same compound, the Activity [19] was 86.7%, the Activity [20] was “Active” and the DC50 [21] was 23.5 nM.
